Legend:
[1] = biological target: T1, HDAC6 human recombinant (Homo sapiens, UniProt Q9UBN7); experiment: Inhibition of HDAC6 activity (fluorimetric assay); assay type: biochemical; settings: test concentrations 0.1, 1, 10, 100 and 1000 nM; 37° C., 60 minutes
T1 construct: purchased Calbiochem 382180
T1 sequence (Q9UBN7 1-1215): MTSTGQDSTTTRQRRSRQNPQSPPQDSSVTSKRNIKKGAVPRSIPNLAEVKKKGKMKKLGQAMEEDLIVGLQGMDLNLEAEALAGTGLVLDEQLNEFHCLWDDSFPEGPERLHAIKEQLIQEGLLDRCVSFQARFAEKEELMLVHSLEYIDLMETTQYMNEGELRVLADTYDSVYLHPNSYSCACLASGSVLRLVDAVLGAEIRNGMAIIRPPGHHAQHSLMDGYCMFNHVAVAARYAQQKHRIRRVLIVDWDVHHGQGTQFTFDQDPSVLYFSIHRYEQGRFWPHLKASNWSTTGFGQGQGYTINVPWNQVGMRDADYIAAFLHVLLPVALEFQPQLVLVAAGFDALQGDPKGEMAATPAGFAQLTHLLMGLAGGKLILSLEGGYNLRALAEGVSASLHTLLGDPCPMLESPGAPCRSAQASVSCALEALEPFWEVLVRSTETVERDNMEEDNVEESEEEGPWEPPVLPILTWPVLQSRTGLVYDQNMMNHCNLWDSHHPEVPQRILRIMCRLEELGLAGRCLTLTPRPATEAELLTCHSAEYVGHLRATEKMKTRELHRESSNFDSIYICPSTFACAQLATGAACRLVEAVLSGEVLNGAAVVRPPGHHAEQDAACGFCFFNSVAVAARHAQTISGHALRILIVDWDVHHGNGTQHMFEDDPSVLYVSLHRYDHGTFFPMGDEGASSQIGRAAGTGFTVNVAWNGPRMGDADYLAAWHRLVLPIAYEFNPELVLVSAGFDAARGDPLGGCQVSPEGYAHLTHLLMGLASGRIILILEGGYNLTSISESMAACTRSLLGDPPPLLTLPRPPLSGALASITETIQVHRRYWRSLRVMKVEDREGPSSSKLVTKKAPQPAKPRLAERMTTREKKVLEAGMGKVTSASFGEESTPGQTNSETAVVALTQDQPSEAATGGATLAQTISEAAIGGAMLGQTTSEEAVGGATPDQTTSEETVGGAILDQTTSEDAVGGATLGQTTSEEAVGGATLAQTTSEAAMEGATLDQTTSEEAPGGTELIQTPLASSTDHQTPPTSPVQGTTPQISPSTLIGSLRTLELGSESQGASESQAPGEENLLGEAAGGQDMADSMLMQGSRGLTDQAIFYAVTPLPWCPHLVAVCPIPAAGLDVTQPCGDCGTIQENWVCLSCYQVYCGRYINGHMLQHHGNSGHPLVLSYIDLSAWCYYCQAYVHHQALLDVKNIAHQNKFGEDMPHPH
Method in brief: (§1)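 HDAC1 tested with the kit assay mixture at 100, 1000 and 10000 nM compound; recombinant human HDAC6 at 0.1, 1, 10, 100 and 1000 nM. Reaction ran 60 min at 37° C, then developer was added for 30 min at 37° C and fluorescence quantified.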

[2] = biological target: T2, HDAC1 (Homo sapiens, UniProt Q13547); experiment: Inhibition of HDAC1 activity (HDAC1 fluorimetric drug discovery assay kit); assay type: biochemical; settings: test concentrations 100, 1000 and 10000 nM; 37° C., 60 minutes
T2 construct: purchased Enzolifesciences BML-AK511
T2 sequence (Q13547 whole entry): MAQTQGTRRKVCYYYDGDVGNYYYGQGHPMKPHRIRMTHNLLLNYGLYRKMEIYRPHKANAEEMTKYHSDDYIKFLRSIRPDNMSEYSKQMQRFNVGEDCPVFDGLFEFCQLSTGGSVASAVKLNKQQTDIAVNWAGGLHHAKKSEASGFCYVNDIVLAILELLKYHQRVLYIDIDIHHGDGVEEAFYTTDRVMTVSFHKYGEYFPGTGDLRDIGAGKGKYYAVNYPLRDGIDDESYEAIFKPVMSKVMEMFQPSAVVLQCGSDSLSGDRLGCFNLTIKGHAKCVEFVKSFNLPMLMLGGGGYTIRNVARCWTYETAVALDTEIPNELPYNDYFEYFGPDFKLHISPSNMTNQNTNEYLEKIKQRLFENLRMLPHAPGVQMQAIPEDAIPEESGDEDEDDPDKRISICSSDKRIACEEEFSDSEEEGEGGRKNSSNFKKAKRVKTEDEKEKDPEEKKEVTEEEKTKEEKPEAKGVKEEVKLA
Method in brief: as §1

Q: For O=C(NO)c1ccc(Cn2ccc3cc(C4CCN(Cc5noc(C(F)(F)F)n5)CC4)cnc32)cc1 [Compound 845, N-hydroxy-4-((5-(1-((5-(trifluoromethyl)-1,2,4-oxadiazol-3-yl)methyl)piperidin-4-yl)-1H-pyrrolo[2,3-b]pyridin-1-yl)methyl)benzamide], which IC50 [1] is on record?
A: 1.2 nM

Q: What about the IC50 [2] of the same molecule?
A: 300 nM

Q: Which results are given for COc1cccc(CN2CCN(c3ccnc4c3ccn4Cc3ccc(C(=O)NO)cc3)CC2)c1 [Compound 846, N-hydroxy-4-((4-(4-(3-methoxybenzyl)piperazin-1-yl)-1H-pyrrolo[2,3-b]pyridin-1-yl)methyl)benzamide]?
A: IC50 [1]: 5.7 nM; IC50 [2]: 1410 nM

Q: Which IC50 [1] does the source give for O=C(NO)c1ccc(Cn2ccc3c(N4CCN(Cc5ccccc5F)CC4)ccnc32)cc1 [Compound 847, 4-((4-(4-(2-fluorobenzyl)piperazin-1-yl)-1H-pyrrolo[2,3-b]pyridin-1-yl)methyl)-N-hydroxybenzamide] here?
A: 5.6 nM

Q: What about the IC50 [2] of the same molecule?
A: 600 nM

Q: O=C(NO)c1ccc(Cn2ccc3c(N4CCN(Cc5cccc(F)c5)CC4)ccnc32)cc1 [Compound 848, 4-((4-(4-(3-fluorobenzyl)piperazin-1-yl)-1H-pyrrolo[2,3-b]pyridin-1-yl)methyl)-N-hydroxybenzamide] was tested. Which IC50 [1] did it give?
A: 9.1 nM

Q: And the IC50 [2]?
A: 850 nM

Q: Which results are given for O=C(NO)c1ccc(Cn2ccc3c(N4CCN(Cc5cccnc5)CC4)ccnc32)cc1 [Compound 849, N-hydroxy-4-((4-(4-(pyridin-3-ylmethyl)piperazin-1-yl)-1H-pyrrolo[2,3-b]pyridin-1-yl)methyl)benzamide]?
A: IC50 [1]: 11.7 nM; IC50 [2]: 290 nM

Q: Which results are given for O=C(NO)c1ccc(Cn2ccc3c(N4CCN(Cc5ccncc5)CC4)ccnc32)cc1 [Compound 850, N-hydroxy-4-((4-(4-(pyridin-4-ylmethyl)piperazin-1-yl)-1H-pyrrolo[2,3-b]pyridin-1-yl)methyl)benzamide]?
A: IC50 [1]: 4.4 nM; IC50 [2]: 220 nM

Q: Which IC50 [1] does the source give for O=C(NO)c1ccc(Cn2ccc3cc(N4CCN(Cc5cccc(F)c5)CC4)cnc32)cc1 [Compound 851, 4-((5-(4-(3-fluorobenzyl)piperazin-1-yl)-1H-pyrrolo[2,3-b]pyridin-1-yl)methyl)-N-hydroxybenzamide] here?
A: 12.7 nM

Q: And the IC50 [2]?
A: 1930 nM

Q: For O=C(NO)c1ccc(Cn2ccc3cc(N4CCN(Cc5ccc(F)cc5)CC4)cnc32)cc1 [Compound 852, 4-((5-(4-(4-fluorobenzyl)piperazin-1-yl)-1H-pyrrolo[2,3-b]pyridin-1-yl)methyl)-N-hydroxybenzamide], which IC50 [1] is on record?
A: 11.5 nM

Q: And the IC50 [2]?
A: 2210 nM

Q: For CC(C)CN1CCN(c2cnc3c(ccn3Cc3ccc(C(=O)NO)cc3)c2)CC1 [Compound 853, N-hydroxy-4-((5-(4-isobutylpiperazin-1-yl)-1H-pyrrolo[2,3-b]pyridin-1-yl)methyl)benzamide], which IC50 [1] is on record?
A: 24 nM

Q: What about the IC50 [2] of the same molecule?
A: 3510 nM

Q: Which results are given for CC(C)(F)C(=O)N1CCC(c2cnc3c(ccn3Cc3ccc(C(=O)NO)cc3)c2)CC1 [Compound 854, 4-((5-(1-(2-fluoro-2-methylpropanoyl)piperidin-4-yl)-1H-pyrrolo[2,3-b]pyridin-1-yl)methyl)-N-hydroxybenzamide]?
A: IC50 [1]: 5 nM; IC50 [2]: 350 nM

Q: CC(C)(F)C(=O)N1CCN(c2cnc3c(ccn3Cc3ccc(C(=O)NO)cc3)c2)CC1 [Compound 855, 4-((5-(4-(2-fluoro-2-methylpropanoyl)piperazin-1-yl)-1H-pyrrolo[2,3-b]pyridin-1-yl)methyl)-N-hydroxybenzamide] was tested. Which IC50 [1] did it give?
A: 3.5 nM

Q: And the IC50 [2]?
A: 250 nM

Q: With CC(C)(F)C(=O)N1CCN(c2ccnc3c2ccn3Cc2ccc(C(=O)NO)cc2)CC1 [Compound 856, 4-((4-(4-(2-fluoro-2-methylpropanoyl)piperazin-1-yl)-1H-pyrrolo[2,3-b]pyridin-1-yl)methyl)-N-hydroxybenzamide] as the molecule, how does the IC50 [1] read?
A: 2.3 nM

Q: And the IC50 [2]?
A: 80 nM

Q: With C[C@@H]1CN(c2cnc3c(ccn3Cc3ccc(C(=O)NO)cc3)c2)C[C@H](C)N1Cc1cccc(F)c1 [Compound 857, 4-((5-((3S,5R)-4-(3-fluorobenzyl)-3,5-dimethylpiperazin-1-yl)-1H-pyrrolo[2,3-b]pyridin-1-yl)methyl)-N-hydroxybenzamide] as the molecule, how does the IC50 [1] read?
A: 24.8 nM

Q: What about the IC50 [2] of the same molecule?
A: 2140 nM

Q: For CC(C)(F)C(=O)N1CCC(c2ccnc3c2ccn3Cc2ccc(C(=O)NO)cc2)CC1 [Compound 858, 4-((4-(1-(2-fluoro-2-methylpropanoyl)piperidin-4-yl)-1H-pyrrolo[2,3-b]pyridin-1-yl)methyl)-N-hydroxybenzamide], which IC50 [1] is on record?
A: 3.6 nM

Q: What about the IC50 [2] of the same molecule?
A: 60 nM

Q: Which results are given for COc1cccc(CN2CCC(c3ccnc4c3ccn4Cc3ccc(C(=O)NO)cc3)CC2)c1 [Compound 859, N-hydroxy-4-((4-(1-(3-methoxybenzyl)piperidin-4-yl)-1H-pyrrolo[2,3-b]pyridin-1-yl)methyl)benzamide]?
A: IC50 [1]: 6 nM; IC50 [2]: 330 nM

Q: How did the IC50 [1] turn out when O=C(NO)c1ccc(Cn2ccc3c(C4CCN(C(=O)c5cccc(F)c5)CC4)ccnc32)cc1 [Compound 860, 4-((4-(1-(3-fluorobenzoyl)piperidin-4-yl)-1H-pyrrolo[2,3-b]pyridin-1-yl)methyl)-N-hydroxybenzamide] was run?
A: 2.5 nM

Q: What about the IC50 [2] of the same molecule?
A: 120 nM

Q: What does the source list for O=C(NO)c1ccc(Cn2ccc3cc(N4CCN(Cc5ccccc5F)CC4)cnc32)cc1 [Compound 861, 4-((5-(4-(2-fluorobenzyl)piperazin-1-yl)-1H-pyrrolo[2,3-b]pyridin-1-yl)methyl)-N-hydroxybenzamide]?
A: IC50 [1]: 11.2 nM; IC50 [2]: 1880 nM

Q: How did the IC50 [1] turn out when CC(C)(C)CCN1CCN(c2cnc3c(ccn3Cc3ccc(C(=O)NO)cc3)c2)CC1 [Compound 862, 4-((5-(4-(3,3-dimethylbutyl)piperazin-1-yl)-1H-pyrrolo[2,3-b]pyridin-1-yl)methyl)-N-hydroxybenzamide] was run?
A: 12.1 nM

Q: And the IC50 [2]?
A: 1430 nM

Q: With CC(C)CN1CCC(c2cnc3c(ccn3Cc3ccc(C(=O)NO)cc3)c2)CC1 [Compound 863, N-hydroxy-4-((5-(1-isobutylpiperidin-4-yl)-1H-pyrrolo[2,3-b]pyridin-1-yl)methyl)benzamide] as the molecule, how does the IC50 [1] read?
A: 11.5 nM

Q: And the IC50 [2]?
A: 1120 nM

Q: What does the source list for CC(C)(C)CCN1CCC(c2cnc3c(ccn3Cc3ccc(C(=O)NO)cc3)c2)CC1 [Compound 864, 4-((5-(1-(3,3-dimethylbutyl)piperidin-4-yl)-1H-pyrrolo[2,3-b]pyridin-1-yl)methyl)-N-hydroxybenzamide]?
A: IC50 [1]: 18 nM; IC50 [2]: 1740 nM

Q: What does the source list for C[C@@H]1CN(c2cnc3c(ccn3Cc3ccc(C(=O)NO)cc3)c2)C[C@H](C)N1CC(C)(C)O [Compound 865, N-hydroxy-4-((5-((3S,5R)-4-(2-hydroxy-2-methylpropyl)-3,5-dimethylpiperazin-1-yl)-1H-pyrrolo[2,3-b]pyridin-1-yl)methyl)benzamide]?
A: IC50 [1]: 12 nM; IC50 [2]: 680 nM

Q: With C[C@@H]1CN(c2cnc3c(ccn3Cc3ccc(C(=O)NO)cc3)c2)C[C@H](C)N1CC(C)(C)F [Compound 866, 4-((5-((3S,5R)-4-(2-fluoro-2-methylpropyl)-3,5-dimethylpiperazin-1-yl)-1H-pyrrolo[2,3-b]pyridin-1-yl)methyl)-N-hydroxybenzamide] as the molecule, how does the IC50 [1] read?
A: 12 nM

Q: What about the IC50 [2] of the same molecule?
A: 1630 nM

Q: CN1CCC(c2cnc3c(ccn3Cc3ccc(C(=O)NO)cc3)c2)CC1 [Compound 867, N-hydroxy-4-((5-(1-methylpiperidin-4-yl)-1H-pyrrolo[2,3-b]pyridin-1-yl)methyl)benzamide] was tested. Which IC50 [1] did it give?
A: 7.8 nM

Q: What about the IC50 [2] of the same molecule?
A: 620 nM

Reference: US9650379B2 (CHONG KUN DANG PHARMACEUTICAL CORP., priority 2013, dated 2017)
